Tests used:
human NHE-3 = biological target: T1, human NHE-3 (Homo sapiens, UniProt P48764); test: Cell-based assay of NHE-3 activity (human NHE3 inhibition assay); conditions: OK cells with human NHE-3 gene, BCECF pH dye, 0-30 μM test compound; for IC50: read-out: Human NHE3 pIC50 (converted)
T1 construct: expressed in transfected cells; host or cells: Opossum kidney (OK) cells (ATCC), transfected by electroporation
T1 sequence (P48764 26-834): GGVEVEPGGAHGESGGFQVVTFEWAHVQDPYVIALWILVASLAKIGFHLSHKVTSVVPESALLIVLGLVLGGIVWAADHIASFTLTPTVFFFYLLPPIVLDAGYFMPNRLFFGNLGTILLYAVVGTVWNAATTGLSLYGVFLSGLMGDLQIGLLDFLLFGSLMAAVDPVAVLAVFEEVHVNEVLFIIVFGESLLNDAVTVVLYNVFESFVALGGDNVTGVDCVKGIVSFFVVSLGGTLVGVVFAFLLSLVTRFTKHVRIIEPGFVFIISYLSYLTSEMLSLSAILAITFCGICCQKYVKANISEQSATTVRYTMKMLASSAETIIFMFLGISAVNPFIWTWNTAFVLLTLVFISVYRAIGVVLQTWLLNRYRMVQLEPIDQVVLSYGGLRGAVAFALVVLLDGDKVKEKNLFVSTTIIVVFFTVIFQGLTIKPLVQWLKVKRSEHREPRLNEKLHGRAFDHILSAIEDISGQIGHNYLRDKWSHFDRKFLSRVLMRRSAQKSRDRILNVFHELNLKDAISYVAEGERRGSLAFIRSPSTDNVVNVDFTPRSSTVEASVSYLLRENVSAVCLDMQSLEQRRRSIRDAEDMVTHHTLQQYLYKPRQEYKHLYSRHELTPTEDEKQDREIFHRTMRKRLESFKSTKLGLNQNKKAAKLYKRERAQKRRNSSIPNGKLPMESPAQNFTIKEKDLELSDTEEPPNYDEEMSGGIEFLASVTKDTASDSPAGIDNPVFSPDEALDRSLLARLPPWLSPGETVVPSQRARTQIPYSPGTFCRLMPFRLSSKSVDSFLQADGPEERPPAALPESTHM
Procedure, shortened: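 Opossum kidney cells electroporated with rat or human NHE-3, loaded with 5 μM BCECF-AM in NH4Cl-HEPES pH 7.4 for 30 min at RT, then acidified 10 min in Na+-free choline HEPES. Na+-dependent pH recovery rates from BCECF fluorescence, averaged over ≥2 replicates, gave pIC50.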

Rat NHE-3 = biological target: T2, Rat NHE-3 (Rattus norvegicus, UniProt P26433); test: Cell-based assay of NHE-3 activity (persistent inhibition, after washout); conditions: OK cells with rat NHE-3 gene, 60 min incubation, recovery initiated 40 min after compound washout; for IC50: read-out: Rat NHE3 pIC50 (persistent) (converted)
T2 construct: expressed in transfected cells; host or cells: Opossum kidney (OK) cells (ATCC), transfected by electroporation
Procedure, shortened: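 OK cells transiently expressing rat NHE-3 were exposed to 0-30 μM compound in NaCl-HEPES pH 7.4 for 60 min, then washed free of drug before NH4Cl/BCECF-AM loading and acid-loading in Na+-free choline buffer. Na+-dependent pH recovery rates (mean of ≥2 replicates) gave pIC50.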

Fecal recovery = format: in vivo, Sprague Dawley rats; conditions: rat, 1 mg/kg oral gavage; for dose excreted: male, Sprague-Dawley, faeces
Experimental: Three male Sprague Dawley rats were administered 1 mg/kg test compound by oral gavage. Feces were collected from study animals from 0-48 or 0-72 hours after dosing, dried by lyophilization, and homogenized. Replicate aliquots of 40-60 mg each were subjected to extraction/protein precipitation with 7:1 acetonitrile:water and centrifuged. Supernatants were diluted 1:10 in 50:50 acetonitrile:water prior to analysis by LC-MS/MS. Compound concentrations, determined by interpolation from a standard calibration curve prepared in blank feces matrix, were converted to the percentage of dosed material recovered by taking into account the total collected fecal matter. The percent recovery for each rat was reported as the mean of the calculations from replicate samples. The overall percent recovery (Fecal Recovery [%]) was reported as the mean percent recovery from three rats. Accurate quality control sample recoveries were confirmed in each run, and extraction efficiency was periodically verified.

T2 sequence (P26433 29-831): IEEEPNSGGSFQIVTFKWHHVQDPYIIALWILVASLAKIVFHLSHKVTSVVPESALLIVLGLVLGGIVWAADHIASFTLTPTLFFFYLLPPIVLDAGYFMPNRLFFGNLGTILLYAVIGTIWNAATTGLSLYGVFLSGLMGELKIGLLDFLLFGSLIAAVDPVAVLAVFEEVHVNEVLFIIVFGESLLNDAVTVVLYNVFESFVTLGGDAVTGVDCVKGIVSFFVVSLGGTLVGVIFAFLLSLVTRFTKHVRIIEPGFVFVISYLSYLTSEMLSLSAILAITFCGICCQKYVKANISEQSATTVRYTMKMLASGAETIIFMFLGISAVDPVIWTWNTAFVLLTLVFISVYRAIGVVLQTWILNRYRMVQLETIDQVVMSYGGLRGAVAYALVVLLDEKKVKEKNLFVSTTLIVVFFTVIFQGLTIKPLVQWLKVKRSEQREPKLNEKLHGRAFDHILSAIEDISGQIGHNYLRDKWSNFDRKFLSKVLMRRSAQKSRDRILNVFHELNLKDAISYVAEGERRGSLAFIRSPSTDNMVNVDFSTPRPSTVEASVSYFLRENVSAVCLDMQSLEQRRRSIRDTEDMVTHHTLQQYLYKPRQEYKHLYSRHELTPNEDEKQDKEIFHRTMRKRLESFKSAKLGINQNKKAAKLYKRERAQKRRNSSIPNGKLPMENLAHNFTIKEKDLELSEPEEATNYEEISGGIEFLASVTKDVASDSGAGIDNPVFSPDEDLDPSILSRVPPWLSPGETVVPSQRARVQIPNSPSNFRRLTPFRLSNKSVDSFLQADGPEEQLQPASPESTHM

Structure (SMILES)	IC50 (human NHE-3) [nM]	IC50 (Rat NHE-3) [nM]	dose excreted (Fecal recovery; collection time 48 h) [%]	dose excreted (Fecal recovery; collection time 72 h) [%]	Human NHE3 pIC50 (human NHE-3)	Rat NHE3 pIC50 (persistent) (Rat NHE-3)	Fecal Recovery (Fecal recovery; collection time 48 h) [%]
CN1Cc2c(Cl)cc(Cl)cc2[C@H](c2cccc(S(=O)(=O)NCCOCCOCCNC(=O)CCC(N)(CCC(=O)NCCOCCOCCNS(=O)(=O)c3cccc([C@@H]4CN(C)Cc5c(Cl)cc(Cl)cc54)c3)CCC(=O)NCCOCCOCCNS(=O)(=O)c3cccc([C@@H]4CN(C)Cc5c(Cl)cc(Cl)cc54)c3)c2)C1 [Example 2, 4-amino-N^1,N^7-bis(2-(2-(2-(3-((S)-6,8-dichloro-2-methyl-1,2,3,4-tetrahydroisoquinolin-4-yl)phenylsulfonamido)ethoxy)ethoxy)ethyl)-4-(3-(2-(2-(2-(3-((S)-6,8-dichloro-2-methyl-1,2,3,4-tetrahydroisoquinolin-4-yl)phenylsulfonamido)ethoxy)ethoxy)ethylamino)-3-oxopropyl)heptanediamide]	< 100	< 100	87	–	–	–	–
CN1Cc2c(Cl)cc(Cl)cc2[C@H](c2cccc(S(=O)(=O)NCCOCCOCCNC(=O)CCC(CCC(=O)NCCOCCOCCNS(=O)(=O)c3cccc([C@@H]4CN(C)Cc5c(Cl)cc(Cl)cc54)c3)(CCC(=O)NCCOCCOCCNS(=O)(=O)c3cccc([C@@H]4CN(C)Cc5c(Cl)cc(Cl)cc54)c3)NC(=O)NCCS(=O)(=O)O)c2)C1 [Example 3]	< 100	< 100	–	110	–	–	–
CN1Cc2c(Cl)cc(Cl)cc2[C@H](c2cccc(S(=O)(=O)NCCOCCOCCNC(=O)CCC(CCC(=O)NCCOCCOCCNS(=O)(=O)c3cccc([C@@H]4CN(C)Cc5c(Cl)cc(Cl)cc54)c3)(CCC(=O)NCCOCCOCCNS(=O)(=O)c3cccc([C@@H]4CN(C)Cc5c(Cl)cc(Cl)cc54)c3)N(C)C)c2)C1 [Example 4, N^1,N^7-bis(2-(2-(2-(3-((S)-6,8-dichloro-2-methyl-1,2,3,4-tetrahydroisoquinolin-4-yl)phenylsulfonamido)ethoxy)ethoxy)ethyl)-4-(3-(2-(2-(2-(3-((S)-6,8-dichloro-2-methyl-1,2,3,4-tetrahydroisoquinolin-4-yl)phenylsulfonamido)ethoxy)ethoxy)ethylamino)-3-oxopropyl)-4-(dimethylamino)heptanediamide]	< 100	< 100	–	–	–	–	–
CN1Cc2c(Cl)cc(Cl)cc2[C@H](c2cccc(S(=O)(=O)NCCOCCOCCNC(=O)CCC(CCC(=O)NCCOCCOCCNS(=O)(=O)c3cccc([C@@H]4CN(C)Cc5c(Cl)cc(Cl)cc54)c3)(CCC(=O)NCCOCCOCCNS(=O)(=O)c3cccc([C@@H]4CN(C)Cc5c(Cl)cc(Cl)cc54)c3)NC(=O)COCC(=O)O)c2)C1 [Example 6, 1-(3-((S)-6,8-dichloro-2-methyl-1,2,3,4-tetrahydroisoquinolin-4-yl)phenylsulfonamido)-13,13-bis(3-(2-(2-(2-(3-((S)-6,8-dichloro-2-methyl-1,2,3,4-tetrahydroisoquinolin-4-yl)phenylsulfonamido)ethoxy)ethoxy)ethylamino)-3-oxopropyl)-10,15-dioxo-3,6,17-trioxa-9,14-diazanonadecan-19-oic Acid]	< 100	< 100	51.5	–	–	–	–
CN1Cc2c(Cl)cc(Cl)cc2[C@H](c2cccc(S(=O)(=O)NCCOCCOCCNC(=O)CCC(CCC(=O)NCCOCCOCCNS(=O)(=O)c3cccc([C@@H]4CN(C)Cc5c(Cl)cc(Cl)cc54)c3)(CCC(=O)NCCOCCOCCNS(=O)(=O)c3cccc([C@@H]4CN(C)Cc5c(Cl)cc(Cl)cc54)c3)NC(=O)NCC(=O)O)c2)C1 [Example 7, 18-(3-((S)-6,8-dichloro-2-methyl-1,2,3,4-tetrahydroisoquinolin-4-yl)phenylsulfonamido)-6,6-bis(3-(2-(2-(2-(3-((S)-6,8-dichloro-2-methyl-1,2,3,4-tetrahydroisoquinolin-4-yl)phenylsulfonamido)ethoxy)ethoxy)ethylamino)-3-oxopropyl)-4,9-dioxo-13,16-dioxa-3,5,10-triazaoctadecan-1-oic acid]	< 100	< 100	83.2	–	–	–	–
CN1Cc2c(Cl)cc(Cl)cc2[C@H](c2cccc(S(=O)(=O)NCCOCCOCCNC(=O)CCC(CCC(=O)NCCOCCOCCNS(=O)(=O)c3cccc([C@@H]4CN(C)Cc5c(Cl)cc(Cl)cc54)c3)(CCC(=O)NCCOCCOCCNS(=O)(=O)c3cccc([C@@H]4CN(C)Cc5c(Cl)cc(Cl)cc54)c3)NC(=O)NC(CO)(CO)CO)c2)C1 [Example 11, N^1,N^7-bis(2-(2-(2-(3-((S)-6,8-dichloro-2-methyl-1,2,3,4-tetrahydroisoquinolin-4-yl)phenylsulfonamido)ethoxy)ethoxy)ethyl)-4-(3-(2-(2-(2-(3-((S)-6,8-dichloro-2-methyl-1,2,3,4-tetrahydroisoquinolin-4-yl)phenylsulfonamido)ethoxy)ethoxy)ethylamino)-3-oxopropyl)-4-(3-(1,3-dihydroxy-2-(hydroxymethyl)propan-2-yl)ureido)heptanediamide]	100 to 10000	< 100	64.1	–	–	–	–
CN(C)CC(=O)NC(CCC(=O)NCCOCCOCCNS(=O)(=O)c1cccc([C@@H]2CN(C)Cc3c(Cl)cc(Cl)cc32)c1)(CCC(=O)NCCOCCOCCNS(=O)(=O)c1cccc([C@@H]2CN(C)Cc3c(Cl)cc(Cl)cc32)c1)CCC(=O)NCCOCCOCCNS(=O)(=O)c1cccc([C@@H]2CN(C)Cc3c(Cl)cc(Cl)cc32)c1 [Example 14, N1,N7-bis(2-(2-(2-(3-((S)-6,8-dichloro-2-methyl-1,2,3,4-tetrahydroisoquinolin-4-yl)phenylsulfonamido)ethoxy)ethoxy)ethyl)-4-(3-(2-(2-(2-(3-((S)-6,8-dichloro-2-methyl-1,2,3,4-tetrahydroisoquinolin-4-yl)phenylsulfonamido)ethoxy)ethoxy)ethylamino)-3-oxopropyl)-4-(2-(dimethylamino)acetamido)heptanediamide]	< 100	< 100	–	75.3	–	–	–
CN1Cc2c(Cl)cc(Cl)cc2[C@H](c2cccc(S(=O)(=O)NCCOCCOCCNC(=O)CCC(CCC(=O)NCCOCCOCCNS(=O)(=O)c3cccc([C@@H]4CN(C)Cc5c(Cl)cc(Cl)cc54)c3)(CCC(=O)NCCOCCOCCNS(=O)(=O)c3cccc([C@@H]4CN(C)Cc5c(Cl)cc(Cl)cc54)c3)NC(=O)NCCN3CCOCC3)c2)C1 [Example 17, N^1,N^7-bis(2-(2-(2-(3-((S)-6,8-dichloro-2-methyl-1,2,3,4-tetrahydroisoquinolin-4-yl)phenylsulfonamido)ethoxy)ethoxy)ethyl)-4-(3-(2-(2-(2-(3-((S)-6,8-dichloro-2-methyl-1,2,3,4-tetrahydroisoquinolin-4-yl)phenylsulfonamido)ethoxy)ethoxy)ethylamino)-3-oxopropyl)-4-(3-(2-morpholinoethyl)ureido)heptanediamide]	< 100	< 100	–	96.9	–	–	–
CN1Cc2c(Cl)cc(Cl)cc2[C@H](c2cccc(S(=O)(=O)NCCOCCOCCNC(=O)CCC(CCC(=O)NCCOCCOCCNS(=O)(=O)c3cccc([C@@H]4CN(C)Cc5c(Cl)cc(Cl)cc54)c3)(CCC(=O)NCCOCCOCCNS(=O)(=O)c3cccc([C@@H]4CN(C)Cc5c(Cl)cc(Cl)cc54)c3)NC(=O)CCCC(=O)O)c2)C1 [Example 36]	–	–	–	–	C (C NHE3 pIC50 > 7)	C (C NHE3 pIC50 > 7)	68
CN1Cc2c(Cl)cc(Cl)cc2[C@H](c2cccc(S(=O)(=O)NCCOCCOCCNC(=O)CCC(CCC(=O)NCCOCCOCCNS(=O)(=O)c3cccc([C@@H]4CN(C)Cc5c(Cl)cc(Cl)cc54)c3)(CCC(=O)NCCOCCOCCNS(=O)(=O)c3cccc([C@@H]4CN(C)Cc5c(Cl)cc(Cl)cc54)c3)NC(=O)CCC(=O)O)c2)C1 [Example 40]	–	–	–	–	C (C NHE3 pIC50 > 7)	C (C NHE3 pIC50 > 7)	99.1
